Data from paper PMC8222254, “Self-assembly of an anion receptor with metal-dependent kinase inhibition and potent in vitro anti-cancer properties” (Nature Communications, 2021).
Where “and” joins values, the source holds several entries; their conditions need not be identical. Identical values can stand only once.

What was measured:
Assay in all cases: Kinase inhibition screen, cell-free 33P ATP assay at 10 μM
Type in all cases: biochemical
[1] = target: 140 purified human kinases (Homo sapiens, UniProt P45984)
Procedure, shortened: (§1)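 Each complex tested in duplicate at 10 μM; cell-free radiometric assay using ^33P ATP on purified enzymes. Hits mapped by HGNC symbol onto the kinome tree.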

[2] = target: T1, 140 purified human kinases (Homo sapiens, UniProt O15264); details: p38d MAPK
T1 sequence (O15264 1-365): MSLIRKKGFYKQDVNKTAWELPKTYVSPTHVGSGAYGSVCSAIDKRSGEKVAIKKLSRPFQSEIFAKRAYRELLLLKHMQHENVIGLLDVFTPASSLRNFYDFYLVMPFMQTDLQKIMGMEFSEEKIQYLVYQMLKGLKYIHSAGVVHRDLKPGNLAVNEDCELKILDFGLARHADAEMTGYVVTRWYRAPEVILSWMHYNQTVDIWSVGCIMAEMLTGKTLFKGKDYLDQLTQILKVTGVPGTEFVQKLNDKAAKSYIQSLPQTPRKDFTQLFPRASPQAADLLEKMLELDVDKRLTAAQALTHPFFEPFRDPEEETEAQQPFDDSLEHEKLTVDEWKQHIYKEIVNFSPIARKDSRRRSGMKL
Procedure, shortened: as §1

[3] = target: 140 purified human kinases (Homo sapiens, UniProt Q9H0K1)
Procedure, shortened: as §1

[4] = target: T2, 140 purified human kinases (Homo sapiens, UniProt Q7L7X3)
T2 sequence (Q7L7X3 1-1001): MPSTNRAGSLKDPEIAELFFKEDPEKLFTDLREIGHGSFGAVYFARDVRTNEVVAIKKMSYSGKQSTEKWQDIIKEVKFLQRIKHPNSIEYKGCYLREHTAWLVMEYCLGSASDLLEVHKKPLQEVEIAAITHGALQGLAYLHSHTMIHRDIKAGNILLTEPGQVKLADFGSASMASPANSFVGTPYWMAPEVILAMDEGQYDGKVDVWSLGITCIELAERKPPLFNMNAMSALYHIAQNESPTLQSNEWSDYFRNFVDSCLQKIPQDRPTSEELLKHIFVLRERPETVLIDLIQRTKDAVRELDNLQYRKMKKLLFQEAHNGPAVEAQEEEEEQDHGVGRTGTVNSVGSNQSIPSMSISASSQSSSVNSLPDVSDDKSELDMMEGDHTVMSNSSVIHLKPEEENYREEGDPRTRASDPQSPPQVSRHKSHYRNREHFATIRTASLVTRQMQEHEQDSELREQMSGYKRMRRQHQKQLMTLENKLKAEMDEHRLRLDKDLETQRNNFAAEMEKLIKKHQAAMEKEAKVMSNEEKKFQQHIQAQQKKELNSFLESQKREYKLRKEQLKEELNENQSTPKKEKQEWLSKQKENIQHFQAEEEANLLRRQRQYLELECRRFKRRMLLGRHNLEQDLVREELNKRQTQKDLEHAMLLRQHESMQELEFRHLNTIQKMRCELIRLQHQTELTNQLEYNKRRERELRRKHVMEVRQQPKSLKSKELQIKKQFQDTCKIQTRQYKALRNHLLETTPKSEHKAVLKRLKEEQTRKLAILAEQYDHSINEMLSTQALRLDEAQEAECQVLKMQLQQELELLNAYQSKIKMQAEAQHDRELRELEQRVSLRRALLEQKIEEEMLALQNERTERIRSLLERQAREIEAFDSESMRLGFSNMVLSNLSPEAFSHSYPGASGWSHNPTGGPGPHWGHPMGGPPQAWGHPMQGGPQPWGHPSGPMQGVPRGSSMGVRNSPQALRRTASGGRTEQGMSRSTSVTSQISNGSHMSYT
Procedure, shortened: as §1

[5] = target: 140 purified human kinases (Homo sapiens, UniProt O75582)
Procedure, shortened: as §1

[6] = target: 140 purified human kinases (Homo sapiens, UniProt Q9P289)
Procedure, shortened: as §1

[7] = target: 140 purified human kinases (Homo sapiens, UniProt O96013)
Procedure, shortened: as §1

[8] = target: 140 purified human kinases (Homo sapiens, UniProt Q13131); details: AMPK (hum); for % Activity inhibition Mean / % Activity inhibition Run 1 / % Activity inhibition Run 2 / % Activity remaining Run 1 / % Activity remaining Run 2: 10 µM
Procedure, shortened: as §1

[9] = target: 140 purified human kinases (Homo sapiens, UniProt Q9H2X6)
Procedure, shortened: as §1

Chain of 140 purified human kinases (Homo sapiens, UniProt Q9H0K1) (Q9H0K1 whole entry): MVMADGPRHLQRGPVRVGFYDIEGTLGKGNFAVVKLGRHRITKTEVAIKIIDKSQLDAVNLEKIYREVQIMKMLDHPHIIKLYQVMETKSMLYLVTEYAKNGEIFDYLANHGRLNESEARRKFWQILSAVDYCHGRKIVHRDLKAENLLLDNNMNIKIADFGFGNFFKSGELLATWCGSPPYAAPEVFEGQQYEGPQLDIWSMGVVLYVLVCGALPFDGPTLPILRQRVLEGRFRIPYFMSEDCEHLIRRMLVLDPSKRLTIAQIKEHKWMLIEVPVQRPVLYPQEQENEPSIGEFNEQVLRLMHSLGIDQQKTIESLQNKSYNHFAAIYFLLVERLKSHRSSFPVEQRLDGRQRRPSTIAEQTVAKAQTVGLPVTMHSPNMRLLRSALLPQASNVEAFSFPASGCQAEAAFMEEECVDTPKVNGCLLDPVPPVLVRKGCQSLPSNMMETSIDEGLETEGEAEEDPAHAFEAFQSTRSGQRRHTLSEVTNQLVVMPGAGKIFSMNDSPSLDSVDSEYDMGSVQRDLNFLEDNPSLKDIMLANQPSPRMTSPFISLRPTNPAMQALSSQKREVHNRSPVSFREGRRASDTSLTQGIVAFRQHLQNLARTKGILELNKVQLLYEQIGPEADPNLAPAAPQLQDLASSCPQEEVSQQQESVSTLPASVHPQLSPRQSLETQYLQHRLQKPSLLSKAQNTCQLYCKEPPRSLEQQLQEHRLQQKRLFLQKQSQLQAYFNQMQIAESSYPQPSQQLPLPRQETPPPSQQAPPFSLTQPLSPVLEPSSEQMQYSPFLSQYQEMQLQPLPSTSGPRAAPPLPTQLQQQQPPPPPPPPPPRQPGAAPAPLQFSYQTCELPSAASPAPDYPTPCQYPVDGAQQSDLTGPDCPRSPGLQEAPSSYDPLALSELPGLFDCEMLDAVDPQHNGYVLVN
Chain of 140 purified human kinases (Homo sapiens, UniProt O75582) (O75582 whole entry): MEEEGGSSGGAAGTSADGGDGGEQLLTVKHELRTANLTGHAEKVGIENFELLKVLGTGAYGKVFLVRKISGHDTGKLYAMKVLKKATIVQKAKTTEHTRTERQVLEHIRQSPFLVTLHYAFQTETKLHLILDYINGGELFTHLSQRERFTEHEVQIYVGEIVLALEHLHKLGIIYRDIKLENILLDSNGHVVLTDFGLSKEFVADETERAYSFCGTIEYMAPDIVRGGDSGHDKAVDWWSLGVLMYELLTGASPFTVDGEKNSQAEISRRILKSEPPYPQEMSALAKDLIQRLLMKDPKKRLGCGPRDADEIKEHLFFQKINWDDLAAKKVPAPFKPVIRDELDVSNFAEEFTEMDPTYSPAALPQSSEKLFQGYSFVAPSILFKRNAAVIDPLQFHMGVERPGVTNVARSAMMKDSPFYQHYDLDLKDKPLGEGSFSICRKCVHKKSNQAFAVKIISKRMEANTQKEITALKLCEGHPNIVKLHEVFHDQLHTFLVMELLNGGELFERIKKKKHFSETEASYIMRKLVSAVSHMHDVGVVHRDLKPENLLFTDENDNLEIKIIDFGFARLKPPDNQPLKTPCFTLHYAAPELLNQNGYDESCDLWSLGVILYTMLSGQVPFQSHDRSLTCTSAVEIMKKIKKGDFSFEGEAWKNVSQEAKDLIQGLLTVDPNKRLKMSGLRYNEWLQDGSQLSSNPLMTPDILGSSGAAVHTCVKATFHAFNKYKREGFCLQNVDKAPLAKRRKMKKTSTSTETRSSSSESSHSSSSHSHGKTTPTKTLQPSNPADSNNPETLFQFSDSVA
Chain of 140 purified human kinases (Homo sapiens, UniProt Q9P289) (Q9P289 whole entry): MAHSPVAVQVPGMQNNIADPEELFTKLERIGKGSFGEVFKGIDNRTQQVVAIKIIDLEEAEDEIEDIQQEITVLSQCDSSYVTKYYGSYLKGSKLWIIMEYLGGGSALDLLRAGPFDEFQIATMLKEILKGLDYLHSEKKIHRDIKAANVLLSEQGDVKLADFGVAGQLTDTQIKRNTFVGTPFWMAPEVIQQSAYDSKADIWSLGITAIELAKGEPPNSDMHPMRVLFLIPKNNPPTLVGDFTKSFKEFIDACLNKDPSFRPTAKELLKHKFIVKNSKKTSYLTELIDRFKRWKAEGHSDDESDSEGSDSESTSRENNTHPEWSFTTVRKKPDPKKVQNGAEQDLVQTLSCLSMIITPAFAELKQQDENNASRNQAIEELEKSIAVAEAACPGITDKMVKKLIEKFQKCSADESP
Chain of 140 purified human kinases (Homo sapiens, UniProt Q13131) (Q13131 whole entry): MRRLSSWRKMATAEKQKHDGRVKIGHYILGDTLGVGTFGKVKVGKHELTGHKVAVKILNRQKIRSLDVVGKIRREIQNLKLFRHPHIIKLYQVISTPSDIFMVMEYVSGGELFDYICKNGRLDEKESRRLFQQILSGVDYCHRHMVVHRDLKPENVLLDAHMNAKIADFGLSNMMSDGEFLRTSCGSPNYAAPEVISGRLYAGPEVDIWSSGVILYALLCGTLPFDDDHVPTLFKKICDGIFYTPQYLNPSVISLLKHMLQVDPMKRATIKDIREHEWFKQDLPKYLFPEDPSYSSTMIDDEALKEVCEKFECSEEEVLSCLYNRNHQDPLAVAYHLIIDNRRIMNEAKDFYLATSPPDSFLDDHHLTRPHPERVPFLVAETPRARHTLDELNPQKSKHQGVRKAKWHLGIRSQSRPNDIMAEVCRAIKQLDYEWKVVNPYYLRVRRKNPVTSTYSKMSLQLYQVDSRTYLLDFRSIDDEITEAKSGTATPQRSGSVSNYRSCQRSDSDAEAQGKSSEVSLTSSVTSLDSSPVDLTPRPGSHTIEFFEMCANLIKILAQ
Chain of 140 purified human kinases (Homo sapiens, UniProt O96013) (O96013 whole entry): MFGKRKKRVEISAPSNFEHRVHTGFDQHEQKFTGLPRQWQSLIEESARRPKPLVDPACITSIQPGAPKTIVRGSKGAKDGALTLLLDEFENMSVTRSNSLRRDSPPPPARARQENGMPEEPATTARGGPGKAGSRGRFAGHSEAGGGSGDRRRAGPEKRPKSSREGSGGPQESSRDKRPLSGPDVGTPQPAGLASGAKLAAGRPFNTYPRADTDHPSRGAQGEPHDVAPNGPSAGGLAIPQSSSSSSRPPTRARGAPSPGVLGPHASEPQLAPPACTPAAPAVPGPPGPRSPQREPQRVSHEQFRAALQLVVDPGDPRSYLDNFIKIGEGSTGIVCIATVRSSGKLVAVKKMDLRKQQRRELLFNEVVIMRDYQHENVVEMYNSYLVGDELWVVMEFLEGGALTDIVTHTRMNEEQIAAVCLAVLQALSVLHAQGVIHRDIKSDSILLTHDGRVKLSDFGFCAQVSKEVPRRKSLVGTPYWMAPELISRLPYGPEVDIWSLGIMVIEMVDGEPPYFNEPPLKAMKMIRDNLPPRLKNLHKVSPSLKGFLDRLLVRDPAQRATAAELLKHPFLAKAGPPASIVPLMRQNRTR
Chain of 140 purified human kinases (Homo sapiens, UniProt P45984) (P45984 whole entry): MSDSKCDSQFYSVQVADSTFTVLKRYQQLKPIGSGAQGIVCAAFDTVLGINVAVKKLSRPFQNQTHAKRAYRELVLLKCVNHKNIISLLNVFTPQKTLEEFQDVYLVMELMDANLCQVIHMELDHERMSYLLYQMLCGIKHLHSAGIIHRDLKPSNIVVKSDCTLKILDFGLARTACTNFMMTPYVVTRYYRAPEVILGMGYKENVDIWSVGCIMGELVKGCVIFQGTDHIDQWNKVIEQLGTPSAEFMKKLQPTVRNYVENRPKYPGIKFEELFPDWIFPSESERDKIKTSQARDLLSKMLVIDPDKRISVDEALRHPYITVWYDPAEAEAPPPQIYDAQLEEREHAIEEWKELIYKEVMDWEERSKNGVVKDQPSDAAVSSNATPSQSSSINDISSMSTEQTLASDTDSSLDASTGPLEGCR
Chain of 140 purified human kinases (Homo sapiens, UniProt Q9H2X6) (Q9H2X6 whole entry): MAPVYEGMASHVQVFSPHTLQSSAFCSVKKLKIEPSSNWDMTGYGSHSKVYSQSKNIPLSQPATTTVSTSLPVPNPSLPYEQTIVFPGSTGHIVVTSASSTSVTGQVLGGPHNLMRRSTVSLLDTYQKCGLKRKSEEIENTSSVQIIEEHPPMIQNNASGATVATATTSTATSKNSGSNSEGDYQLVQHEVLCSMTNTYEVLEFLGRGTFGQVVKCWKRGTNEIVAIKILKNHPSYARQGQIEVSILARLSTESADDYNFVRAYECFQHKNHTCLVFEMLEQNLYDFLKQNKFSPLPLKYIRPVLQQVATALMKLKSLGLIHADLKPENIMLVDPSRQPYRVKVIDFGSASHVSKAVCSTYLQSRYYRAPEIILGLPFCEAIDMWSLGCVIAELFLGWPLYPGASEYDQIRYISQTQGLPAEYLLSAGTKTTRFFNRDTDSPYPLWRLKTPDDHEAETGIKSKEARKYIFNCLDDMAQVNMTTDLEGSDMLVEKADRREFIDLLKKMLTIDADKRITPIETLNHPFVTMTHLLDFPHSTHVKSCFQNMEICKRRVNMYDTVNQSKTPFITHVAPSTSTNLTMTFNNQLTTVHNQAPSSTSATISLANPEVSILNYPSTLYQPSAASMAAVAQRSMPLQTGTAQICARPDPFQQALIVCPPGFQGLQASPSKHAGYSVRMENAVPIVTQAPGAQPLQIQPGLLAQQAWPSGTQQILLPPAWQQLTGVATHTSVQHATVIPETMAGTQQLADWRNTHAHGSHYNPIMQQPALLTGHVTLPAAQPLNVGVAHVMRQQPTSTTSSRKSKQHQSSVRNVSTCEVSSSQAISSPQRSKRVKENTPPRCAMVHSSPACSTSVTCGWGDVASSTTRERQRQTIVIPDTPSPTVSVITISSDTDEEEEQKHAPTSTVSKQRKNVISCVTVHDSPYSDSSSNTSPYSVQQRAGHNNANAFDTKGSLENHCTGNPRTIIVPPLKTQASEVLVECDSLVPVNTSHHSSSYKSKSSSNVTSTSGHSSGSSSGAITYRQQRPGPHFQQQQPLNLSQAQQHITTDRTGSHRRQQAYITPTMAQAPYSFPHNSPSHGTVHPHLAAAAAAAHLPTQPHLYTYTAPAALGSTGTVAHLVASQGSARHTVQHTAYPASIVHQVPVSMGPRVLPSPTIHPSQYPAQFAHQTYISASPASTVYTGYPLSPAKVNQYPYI

SMILES: [Cu+2].[Cu+2].[Cu+2].c1ccc(-c2csc(NCCN(CCNc3nc(-c4ccccn4)cs3)CCNc3nc(-c4ccccn4)cs3)n2)nc1.c1ccc(-c2csc(NCCN(CCNc3nc(-c4ccccn4)cs3)CCNc3nc(-c4ccccn4)cs3)n2)nc1 [[L2Cu3]6+]
- % Inhibition Run 1 ([1]; JNK2): 22.9%
- % Inhibition Run 2 ([1]; JNK2): 15.4%
- % Inhibition, Mean ([1]; JNK2): 19%
- mean % activity ([1]; JNK2): 81%
- % activity ([1]; JNK2, Run 1): 77.1%
- % activity ([1]; JNK2, Run 2): 84.6%
- % Activation, Mean value [2]: 14%
- % Inhibition Run 1 [2]: -9.9%
- % Inhibition Run 2 [2]: -17.9%
- % Inhibition, Mean [2]: -14%
- mean % activity [2]: 114%
- % activity ([2]; Run 1): 109.9%
- % activity ([2]; Run 2): 117.9%
- % Activity Run 1 ([2]; 10 µM): 109.90%
- % Activity Run 2 ([2]; 10 µM): 117.90%
- % Inhibition Run 1 ([3]; SIK2): 88.3%
- % Inhibition Run 2 ([3]; SIK2): 90.4%
- % Inhibition, Mean ([3]; SIK2): 89%
- mean % activity ([3]; SIK2): 11%
- % activity ([3]; SIK2, Run 1): 11.7%
- % activity ([3]; SIK2, Run 2): 9.6%
- % Activation, Mean value ([4]; TAO1): 10%
- % Inhibition Run 1 ([4]; TAO1): -6.6%
- % Inhibition Run 2 ([4]; TAO1): -13.8%
- % Inhibition, Mean ([4]; TAO1): -10%
- mean % activity ([4]; TAO1): 110%
- % activity ([4]; TAO1, Run 1): 106.6%
- % activity ([4]; TAO1, Run 2): 113.8%
- % Activity Run 1 ([4]; TAO1, 10 µM): 106.60%
- % Activity Run 2 ([4]; TAO1, 10 µM): 113.80%
- % Inhibition Run 1 ([5]; MSK1): 67.5%
- % Inhibition Run 2 ([5]; MSK1): 74.8%
- % Inhibition, Mean ([5]; MSK1): 71%
- mean % activity ([5]; MSK1): 29%
- % activity ([5]; MSK1, Run 1): 32.5%
- % activity ([5]; MSK1, Run 2): 25.2%
- % Inhibition Run 1 ([6]; MST4): 74.5%
- % Inhibition Run 2 ([6]; MST4): 70.2%
- % Inhibition, Mean ([6]; MST4): 72%
- mean % activity ([6]; MST4): 28%
- % activity ([6]; MST4, Run 1): 25.5%
- % activity ([6]; MST4, Run 2): 29.8%
- % Inhibition Run 1 ([7]; PAK4): 23.3%
- % Inhibition Run 2 ([7]; PAK4): 36.6%
- % Inhibition, Mean ([7]; PAK4): 30%
- mean % activity ([7]; PAK4): 70%
- % activity ([7]; PAK4, Run 1): 76.7%
- % activity ([7]; PAK4, Run 2): 63.4%
- % Inhibition Run 1 [8]: 97.2%
- % Inhibition Run 2 [8]: 98.1%
- % Inhibition, Mean [8]: 98%
- mean % activity [8]: 2.35%
- % activity ([8]; Run 1): 2.8%
- % activity ([8]; Run 2): 1.9%
- % Activity inhibition Mean [8]: 97.7%
- % Activity inhibition Run 1 [8]: 97.2%
- % Activity inhibition Run 2 [8]: 98.1%
- % Activity remaining Run 1 [8]: 2.80%
- % Activity remaining Run 2 [8]: 1.90%
- % Inhibition Run 1 ([9]; HIPK2): 50.5%
- % Inhibition Run 2 ([9]; HIPK2): 45.5%
- % Inhibition, Mean ([9]; HIPK2): 48%
- mean % activity ([9]; HIPK2): 52%
- % activity ([9]; HIPK2, Run 1): 49.5%
- % activity ([9]; HIPK2, Run 2): 54.5%

SMILES: CC(=O)[O-].CC(=O)[O-].CC(=O)[O-].CC(=O)[O-].CC(=O)[O-].CC(=O)[O-].[Zn+2].[Zn+2].[Zn+2].c1ccc(-c2csc(NCCN(CCNc3nc(-c4ccccn4)cs3)CCNc3nc(-c4ccccn4)cs3)n2)nc1.c1ccc(-c2csc(NCCN(CCNc3nc(-c4ccccn4)cs3)CCNc3nc(-c4ccccn4)cs3)n2)nc1 [[L2Zn3]6+]
- % Inhibition, Mean ([1]; JNK2): 31%
- % Inhibition, Run 1 / Run 2 ([1]; JNK2): 33% and 28%
- mean % activity ([1]; JNK2): 70%
- % activity ([1]; JNK2, duplicate runs): 67% and 72%
- % Activation, Mean value [2]: 4.4%
- % Inhibition, Mean [2]: -4.4%
- % Inhibition, Run 1 / Run 2 [2]: -6% and -2.8%
- mean % activity [2]: 104%
- % activity ([2]; duplicate runs): 106% and 103%
- % Inhibition, Mean ([3]; SIK2): 68%
- % Inhibition, Run 1 / Run 2 ([3]; SIK2): 72% and 64%
- mean % activity ([3]; SIK2): 32%
- % activity ([3]; SIK2, duplicate runs): 29% and 36%
- % Activation, Mean value ([4]; TAO1): 8%
- % Inhibition, Mean ([4]; TAO1): -8%
- mean % activity ([4]; TAO1): 108%
- % activity ([4]; TAO1, duplicate runs): 93% and 122%
- % Inhibition, Mean ([5]; MSK1): 22%
- % Inhibition, Run 1 / Run 2 ([5]; MSK1): 27% and 18%
- mean % activity ([5]; MSK1): 78%
- % activity ([5]; MSK1, duplicate runs): 73% and 82%
- % Inhibition, Mean ([6]; MST4): 23%
- % Inhibition, Run 1 / Run 2 ([6]; MST4): 26% and 19%
- mean % activity ([6]; MST4): 77%
- % activity ([6]; MST4, duplicate runs): 74% and 81%
- % Activation, Mean value ([7]; PAK4): 20%
- % Inhibition, Mean ([7]; PAK4): -20%
- mean % activity ([7]; PAK4): 120%
- % Activity Run 1 ([7]; PAK4, 10 µM): 110.0%
- % Activity Run 2 ([7]; PAK4, 10 µM): 130.0%
- % activity ([7]; PAK4, duplicate runs): 110% and 130%
- % Inhibition, Mean [8]: 93%
- % Inhibition, Run 1 / Run 2 [8]: 94% and 92%
- mean % activity [8]: 7%
- % Activity inhibition Mean [8]: 93.0%
- % Activity inhibition Run 1 [8]: 94%
- % Activity inhibition Run 2 [8]: 92%
- % Activity remaining Run 1 [8]: 6%
- % Activity remaining Run 2 [8]: 8%
- % activity ([8]; duplicate runs): 6.4% and 8%
- % Inhibition, Mean ([9]; HIPK2): 12%
- mean % activity ([9]; HIPK2): 88%
- % activity ([9]; HIPK2, duplicate runs): 76% and 100%
